Data published in the supplement of paper PMC10307832.

Tests used:
Experiment in all cases: relative viability (nuclei count vs DMSO), 5 days (fraction); higher = more cells survive
Silmitasertib = compound: O=C(O)c1ccc2c(c1)nc(Nc1cccc(Cl)c1)c1ccncc12 [Silmitasertib]
Summary of the method: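 Lung cancer cell lines received five library-drug doses (not always all listed) spaced by √10, pinned on vehicle-anchored 1536-well plates after an overnight stay at 37 °C. Five days later, with no medium change, nuclei were Hoechst-stained, imaged at 4× and counted with MetaXpress. Viability is treated-well nuclei relative to vehicle-well nuclei, as a median across plates. Passing plates had control CV below 25% and at least one doubling.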

[1] = compound: O=C(O)c1ccc2c(c1)nc(Nc1cccc(Cl)c1)c1ccncc12 [Silmitasertib] + CC(C)C[C@H](NC(=O)[C@H](Cc1ccccc1)NC(=O)c1cnccn1)B(O)O [Bortezomib] (partner 0.002 µM)
Summary of the method: (§1)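 Relative viability equals treated-well nuclei counts divided by vehicle-well nuclei counts. Counts came from 4× images of lung cancer cell lines grown in 1536-well plates for 5 days after pin-tool dosing on the day after seeding. Dosing used one drug alone or a fixed anchor-drug dose plus five library-drug doses (not always all listed) in √10 steps, and values are medians of duplicate plates.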

[2] = compound: O=C(O)c1ccc2c(c1)nc(Nc1cccc(Cl)c1)c1ccncc12 [Silmitasertib] + CC1(C)CCC(c2ccc(Cl)cc2)=C(CN2CCN(c3ccc(C(=O)NS(=O)(=O)c4ccc(N[C@H](CCN5CCOCC5)CSc5ccccc5)c(S(=O)(=O)C(F)(F)F)c4)cc3)CC2)C1 [Navitoclax] (partner 0.5 µM)
Summary of the method: as §1

[3] = compound: O=C(O)c1ccc2c(c1)nc(Nc1cccc(Cl)c1)c1ccncc12 [Silmitasertib] + COc1cc2c(Oc3ccc(NC(=O)C4(C(=O)Nc5ccc(F)cc5)CC4)cc3F)ccnc2cc1OCCCN1CCOCC1 [Foretinib] (partner 0.25 µM)
Summary of the method: as §1

[4] = compound: O=C(O)c1ccc2c(c1)nc(Nc1cccc(Cl)c1)c1ccncc12 [Silmitasertib] + CS(=O)(=O)CCNCc1ccc(-c2ccc3ncnc(Nc4ccc(OCc5cccc(F)c5)c(Cl)c4)c3c2)o1 [Lapatinib] (partner 2 µM)
Summary of the method: as §1

[5] = compound: O=C(O)c1ccc2c(c1)nc(Nc1cccc(Cl)c1)c1ccncc12 [Silmitasertib] + CS(=O)(=O)N1CCN(Cc2cc3nc(-c4cccc5[nH]ncc45)nc(N4CCOCC4)c3s2)CC1 [Pictilisib] (partner 1 µM)
Summary of the method: as §1

[6] = compound: O=C(O)c1ccc2c(c1)nc(Nc1cccc(Cl)c1)c1ccncc12 [Silmitasertib] + C[C@@H](Oc1cc(-c2cnn(C3CCNCC3)c2)cnc1N)c1c(Cl)ccc(F)c1Cl [Crizotinib] (partner 1 µM)
Summary of the method: as §1

[7] = compound: O=C(O)c1ccc2c(c1)nc(Nc1cccc(Cl)c1)c1ccncc12 [Silmitasertib] + C[C@]1(O)C[C@@H](c2nc(-c3ccc4ccc(-c5ccccc5)nc4c3)c3c(N)nccn32)C1 [Linsitinib] (partner 1 µM)
Summary of the method: as §1

[8] = compound: O=C(O)c1ccc2c(c1)nc(Nc1cccc(Cl)c1)c1ccncc12 [Silmitasertib] + Cc1nc(NC(=O)N2CCC[C@H]2C(N)=O)sc1-c1ccnc(C(C)(C)C(F)(F)F)c1 [Alpelisib] (partner 2 µM)
Summary of the method: as §1

Silmitasertib + Olaparib = compound: O=C(O)c1ccc2c(c1)nc(Nc1cccc(Cl)c1)c1ccncc12 [Silmitasertib] + O=C(c1cc(Cc2n[nH]c(=O)c3ccccc23)ccc1F)N1CCN(C(=O)C2CC2)CC1 [Olaparib] (partner 8 µM)
Summary of the method: as §1

Work on Calu-6 yielded a relative viability (Silmitasertib; 0.04 µM) of 1.14, a relative viability (Silmitasertib; 0.4 µM) of 0.898 and a relative viability (Silmitasertib; 1.265 µM) of 0.885. For the same cell line, the relative viability (Silmitasertib; 4 µM) was 0.663, the relative viability ([1]; first compound 0.04 µM) was 1.13 and the relative viability ([1]; first compound 0.4 µM) was 0.868. The relative viability ([1]; first compound 1.265 µM) was 0.824, the relative viability ([1]; first compound 4 µM) was 0.602 and the relative viability ([2]; first compound 0.04 µM) was 1. The relative viability ([2]; first compound 0.4 µM) was 0.783, the relative viability ([2]; first compound 1.265 µM) was 0.661 and the relative viability ([2]; first compound 4 µM) was 0.374. It also gave a relative viability ([3]; first compound 0.04 µM) of 0.963, a relative viability ([3]; first compound 0.4 µM) of 0.83 and a relative viability ([3]; first compound 1.265 µM) of 0.846. It also gave a relative viability ([3]; first compound 4 µM) of 0.616, a relative viability ([4]; first compound 0.04 µM) of 1.13 and a relative viability ([4]; first compound 0.4 µM) of 0.945. It also gave a relative viability ([4]; first compound 1.265 µM) of 0.761, a relative viability ([4]; first compound 4 µM) of 0.51 and a relative viability ([5]; first compound 0.04 µM) of 0.99. For the same cell line, the relative viability ([5]; first compound 0.4 µM) was 0.934, the relative viability ([5]; first compound 1.265 µM) was 0.628 and the relative viability ([5]; first compound 4 µM) was 0.359. For the same cell line, the relative viability ([6]; first compound 0.04 µM) was 0.915, the relative viability ([6]; first compound 0.4 µM) was 0.721 and the relative viability ([6]; first compound 1.265 µM) was 0.727. For the same cell line, the relative viability ([6]; first compound 4 µM) was 0.527, the relative viability ([7]; first compound 0.04 µM) was 1.04 and the relative viability ([7]; first compound 0.4 µM) was 0.862. It also gave a relative viability ([7]; first compound 1.265 µM) of 0.878, a relative viability ([7]; first compound 4 µM) of 0.49 and a relative viability ([8]; first compound 0.04 µM) of 0.984. For the same cell line, the relative viability ([8]; first compound 0.4 µM) was 0.938, the relative viability ([8]; first compound 1.265 µM) was 0.755 and the relative viability ([8]; first compound 4 µM) was 0.571. For the same cell line, the relative viability (Silmitasertib + Olaparib; first compound 0.04 µM) was 0.654, the relative viability (Silmitasertib + Olaparib; first compound 0.4 µM) was 0.28 and the relative viability (Silmitasertib + Olaparib; first compound 1.265 µM) was 0.445. The relative viability (Silmitasertib + Olaparib; first compound 4 µM) was 0.39.
EBC-1 showed a relative viability (Silmitasertib; 0.04 µM) of 1.09, a relative viability (Silmitasertib; 0.4 µM) of 0.693 and a relative viability (Silmitasertib; 1.265 µM) of 0.591. The relative viability (Silmitasertib; 4 µM) was 0.29, the relative viability ([1]; first compound 0.04 µM) was 0.652 and the relative viability ([1]; first compound 0.4 µM) was 0.39. The relative viability ([1]; first compound 1.265 µM) was 0.347, the relative viability ([1]; first compound 4 µM) was 0.239 and the relative viability ([2]; first compound 0.04 µM) was 0.542. The relative viability ([2]; first compound 0.4 µM) was 0.154, the relative viability ([2]; first compound 1.265 µM) was 0.134 and the relative viability ([2]; first compound 4 µM) was 0.168. The relative viability ([3]; first compound 0.04 µM) was 0.0961, the relative viability ([3]; first compound 0.4 µM) was 0.0977 and the relative viability ([3]; first compound 1.265 µM) was 0.0913. The relative viability ([3]; first compound 4 µM) was 0.0847, the relative viability ([4]; first compound 0.04 µM) was 0.225 and the relative viability ([4]; first compound 0.4 µM) was 0.185. The relative viability ([4]; first compound 1.265 µM) was 0.2, the relative viability ([4]; first compound 4 µM) was 0.192 and the relative viability ([5]; first compound 0.04 µM) was 0.534. For the same cell line, the relative viability ([5]; first compound 0.4 µM) was 0.375, the relative viability ([5]; first compound 1.265 µM) was 0.178 and the relative viability ([5]; first compound 4 µM) was 0.139. It also gave a relative viability ([6]; first compound 0.04 µM) of 0.189, a relative viability ([6]; first compound 0.4 µM) of 0.16 and a relative viability ([6]; first compound 1.265 µM) of 0.171. It also gave a relative viability ([6]; first compound 4 µM) of 0.157, a relative viability ([7]; first compound 0.04 µM) of 0.982 and a relative viability ([7]; first compound 0.4 µM) of 0.655. It also gave a relative viability ([7]; first compound 1.265 µM) of 0.471, a relative viability ([7]; first compound 4 µM) of 0.222 and a relative viability ([8]; first compound 0.04 µM) of 0.925. The relative viability ([8]; first compound 0.4 µM) was 0.601, the relative viability ([8]; first compound 1.265 µM) was 0.262 and the relative viability ([8]; first compound 4 µM) was 0.211. It also gave a relative viability (Silmitasertib + Olaparib; first compound 0.04 µM) of 0.796, a relative viability (Silmitasertib + Olaparib; first compound 0.4 µM) of 0.371 and a relative viability (Silmitasertib + Olaparib; first compound 1.265 µM) of 0.423. For the same cell line, the relative viability (Silmitasertib + Olaparib; first compound 4 µM) was 0.212.
With NCI-H1299 the relative viability (Silmitasertib; 0.04 µM) was 1.05, the relative viability (Silmitasertib; 0.4 µM) was 1.03 and the relative viability (Silmitasertib; 1.265 µM) was 0.945. The relative viability (Silmitasertib; 4 µM) was 0.834, the relative viability ([1]; first compound 0.04 µM) was 1.08 and the relative viability ([1]; first compound 0.4 µM) was 1.01. It also gave a relative viability ([1]; first compound 1.265 µM) of 0.988, a relative viability ([1]; first compound 4 µM) of 1.04 and a relative viability ([2]; first compound 0.04 µM) of 1.1. It also gave a relative viability ([2]; first compound 0.4 µM) of 1.02, a relative viability ([2]; first compound 1.265 µM) of 1.06 and a relative viability ([2]; first compound 4 µM) of 1.05. It also gave a relative viability ([3]; first compound 0.04 µM) of 1.19, a relative viability ([3]; first compound 0.4 µM) of 1.08 and a relative viability ([3]; first compound 1.265 µM) of 1.02. The relative viability ([3]; first compound 4 µM) was 1.13, the relative viability ([4]; first compound 0.04 µM) was 0.989 and the relative viability ([4]; first compound 0.4 µM) was 0.949. For the same cell line, the relative viability ([4]; first compound 1.265 µM) was 0.894, the relative viability ([4]; first compound 4 µM) was 0.804 and the relative viability ([5]; first compound 0.04 µM) was 1.07. For the same cell line, the relative viability ([5]; first compound 0.4 µM) was 0.559, the relative viability ([5]; first compound 1.265 µM) was 0.343 and the relative viability ([5]; first compound 4 µM) was 0.277. The relative viability ([6]; first compound 0.04 µM) was 0.956, the relative viability ([6]; first compound 0.4 µM) was 0.99 and the relative viability ([6]; first compound 1.265 µM) was 0.994. The relative viability ([6]; first compound 4 µM) was 0.764, the relative viability ([7]; first compound 0.04 µM) was 0.96 and the relative viability ([7]; first compound 0.4 µM) was 1.01. The relative viability ([7]; first compound 1.265 µM) was 0.901, the relative viability ([7]; first compound 4 µM) was 0.587 and the relative viability ([8]; first compound 0.04 µM) was 1.08. For the same cell line, the relative viability ([8]; first compound 0.4 µM) was 1.04, the relative viability ([8]; first compound 1.265 µM) was 1.02 and the relative viability ([8]; first compound 4 µM) was 0.826. It also gave a relative viability (Silmitasertib + Olaparib; first compound 0.04 µM) of 0.946, a relative viability (Silmitasertib + Olaparib; first compound 0.4 µM) of 1.02 and a relative viability (Silmitasertib + Olaparib; first compound 1.265 µM) of 0.872. The relative viability (Silmitasertib + Olaparib; first compound 4 µM) was 0.803.
